Laboratory results reported in patent publication US12091425B2 (AMGEN INC., priority 2016, dated 2024).

Molecular target: T1, Mcl-1/Bim interaction, recombinant human Mcl-1 (171-327) (Homo sapiens, UniProt Q07820)
T1 construct: made in house
Assay: Cell free Mcl-1: Bim Affinity Assay (Mcl-1 HTRF)
Type: binding
Conditions: TR-FRET, 0.1 nM Mcl-1 (171-327), 0.05 nM biotin-Bim (51-76)
How it was run: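 Biotin-Bim(51-76) peptide, TR-FRET readout, overnight incubation; IC50 from duplicate competition curves, 4-parameter fit.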

T1 sequence (Q07820 171-327): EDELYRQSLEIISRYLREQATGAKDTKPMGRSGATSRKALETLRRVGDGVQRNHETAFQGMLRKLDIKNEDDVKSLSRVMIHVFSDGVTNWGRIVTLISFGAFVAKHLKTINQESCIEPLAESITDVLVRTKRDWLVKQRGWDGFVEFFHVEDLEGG

| Molecule | IC50 |
| --- | --- |
| O=C1NS(=O)(=O)C[C@H](CO)C/C=C/[C@H](O)[C@@H]2CC[C@H]2CN2C[C@@]3(CCCc4cc(Cl)ccc43)COc3ccc1cc32 [Example 1085, (1S,3′R,6′R,7′S,8′E,11′S)-6-chloro-7′-hydroxy-11′-(hydroxymethyl)-3,4-dihydro-2H,15′H-spiro [naphthalene-1,22′-[20]oxa[13]thia[1,14]diazatetracyclo[14.7.2.0^3,6.0^19,24]pentacosa [8,16,18,24]tetraen]-15′-one 13′,13′-dioxide] | 2.06 nM |
| C/C=C/C1CC(=O)[C@@H]2CC[C@H]2CN2C[C@@]3(CCCc4cc(Cl)ccc43)COc3ccc(cc32)C(=O)NS(=O)(=O)[C@H](C)[C@@H](C)C1 (stereo in doubt) [Example 353, (1S,3′R,6′R,9′S,11′S,12′R)-6-chloro-11′,12′-dimethyl-9′-((1E)-1-propen-1-yl)-3,4-dihydro-2H,7′H,15′H-spiro[naphthalene-1,22′-[20]oxa[13]thia[1,14]diazatetracyclo[14.7.2.0^3,6.0^19,24]pentacosa [16,18,24]triene]-7′,15′-dione 13′,13′-dioxide] | 9.09 nM |
| CC[C@@H]1CC/C=C\[C@@H](NC(C)=O)[C@@H]2CC[C@H]2CN2C[C@@]3(CCCc4cc(Cl)ccc43)COc3ccc(cc32)C(=O)NS1(=O)=O (single isomer, unassigned) [Example 1079] | 5.48 nM |
| CC[C@@H]1CCCC[C@@H](NC(C)=O)[C@@H]2CC[C@H]2CN2C[C@@]3(CCCc4cc(Cl)ccc43)COc3ccc(cc32)C(=O)NS1(=O)=O [Example 1080, N-((1S,3′R,6′R,7′R,12′R)-6-chloro-12′-ethyl-13′,13′-dioxido-15′-oxo-3,4-dihydro-2H-spiro[naphthalene-1,22′-[20]oxa[13]thia[1,14]diazatetracyclo[14.7.2.0^3,6.0^19,24]pentacosa [16,18,24]trien]-7′-yl)acetamide] | 1.14 nM |
| CC[C@@H]1CC/C=C/[C@H](OCCS(C)(=O)=O)[C@@H]2CC[C@H]2CN2C[C@@]3(CCCc4cc(Cl)ccc43)COc3ccc(cc32)C(=O)NS1(=O)=O [Example 981, (1S,3′R,6′R,7′S,8′E,12′R)-6-chloro-12′-ethyl-7′-(2-(methylsulfonyl)ethoxy)-3,4-dihydro-2H,15′H-spiro[naphthalene-1,22′-[20]oxa[13]thia[1,14]diazatetracyclo[14.7.2.0^3,6.0^19,24]pentacosa [8,16,18,24]tetraen]-15′-one 13′,13′-dioxide] | 0.943 nM |
| CCN1CCCC[C@H](O)[C@@H]2CC[C@H]2CN2C[C@@]3(CCCc4cc(Cl)ccc43)COc3ccc(cc32)C(=O)NS1(=O)=O [Example 86, (1S,3′R,6′R,7′S)-6-chloro-12′-ethyl-7′-hydroxy-3,4-dihydro-2H,15′H-spiro[naphthalene-1,22′-[20]oxa[13]thia[1,12,14]triazatetracyclo[14.7.2.0^3,6.0^19,24]pentacosa[16,18,24]trien]-15′-one 13′,13′-dioxide] | 4.04 nM |
| N#C[C@@H]1CC/C=C\[C@H](O)[C@@H]2CC[C@H]2CN2C[C@@]3(CCCc4cc(Cl)ccc43)COc3ccc(cc32)C(=O)NS1(=O)=O (single isomer, unassigned) [Example 153] | 1.22 nM |
| O=C1NS(=O)(=O)[C@H]2CC[C@@H]2CCC[C@H](O)[C@@H]2CC[C@H]2CN2C[C@@]3(CCCc4cc(Cl)ccc43)COc3ccc1cc32 [Example 92, (1S,3′R,6′R,7′S,11′S,14′S)-6-chloro-7′-hydroxy-3,4-dihydro-2H,17′H-spiro[naphthalene-1,24′-[22]oxa[15]thia[1,16]diazapentacyclo[16.7.2.0^3,6.0^11,14.0^21,26]heptacosa[18,20,26]trien]-17′-one 15′,15′-dioxide] | 0.781 nM |
| CCOC[C@@H]1CC/C=C/[C@H](O)[C@@H]2CC[C@H]2CN2C[C@@]3(CCCc4cc(Cl)ccc43)COc3ccc(cc32)C(=O)NS1(=O)=O (single isomer, unassigned) [Example 439] | 0.321 nM |

Same assay, conditions: cell free Mcl-1:Bim TR-FRET, recombinant human Mcl-1 (171-327)

| Molecule | IC50 |
| --- | --- |
| O=C1C[C@H](O)[C@@H]2CC[C@H]2CN2C[C@@]3(CCCc4cc(Cl)ccc43)COc3ccc(cc32)C(=O)NS(=O)(=O)CCN1 (single isomer, unassigned) [Example 681] | 29 nM |
| O=C1NS(=O)(=O)[C@H](CCOc2ccc(Br)cc2)CC/C=C/[C@H](O)[C@@H]2CC[C@H]2CN2C[C@@]3(CCCc4cc(Cl)ccc43)COc3ccc1cc32 (single isomer, unassigned) [Example 625] | 38.3 nM |
| O=C1NS(=O)(=O)CCOC[C@@H](O)C[C@H]2CC[C@H]2CN2C[C@@]3(CCCc4cc(Cl)ccc43)COc3ccc1cc32 (single isomer, unassigned) [Example 780, (3R,6R,8S,22S)-6′-chloro-8-hydroxy-3′,4′-dihydro-2′H,15H-spiro[10,20-dioxa-13-thia-1,14-diazatetracyclo[14.7.2.0^3,6.0^19,24]pentacosa-16,18,24-triene-22, 1′-naphthalen]-15-one-13, 13-dioxide or (3R,6R,8R,22S)-6′-chloro-8-hydroxy-3′,4′-dihydro-2′H,15H-spiro[10,20-dioxa-13-thia-1,14-diazatetracyclo[14.7.2.0^3,6.0^19,24]pentacosa-16,18,24-triene-22, 1′-naphthalen]-15-one-13, 13-dioxide] | 4.84 nM |
| O=C1NS(=O)(=O)[C@H](CO)CCCC[C@H](O)[C@@H]2CC[C@H]2CN2C[C@@]3(CCCc4cc(Cl)ccc43)COc3ccc1cc32 (single isomer, unassigned) [Example 712] | 0.995 nM |
| O=C1NS(=O)(=O)CCCC[C@@H](O)[C@H](O)[C@@H]2CC[C@H]2CN2C[C@@]3(CCCc4cc(Cl)ccc43)COc3ccc1cc32 (single isomer, unassigned) [Example 853, (1S,3′R,6′R,7′R,8′R)-6-chloro-7′,8′-dihydroxy-3,4-dihydro-2H,15′H-spiro[naphthalene-1,22′-[20]oxa[13]thia[1,14]diazatetracyclo[14.7.2.0^3,6.0^19,24]pentacosa [16,18,24]trien]-15′-one 13′,13′-dioxide or (1S,3′R,6′R,7′S,8′S)-6-chloro-7′,8′-dihydroxy-3,4-dihydro-2H,15′H-spiro[naphthalene-1,22′-[20]oxa[13]thia[1,14]diazatetracyclo[14.7.2.0^3,6.0^19,24]pentacosa [16,18,24]trien]-15′-one 13′,13′-dioxide] | 11.7 nM |
| C[C@@H]1CC/C=C/[C@H](NC(=O)N(C)C)[C@@H]2CC[C@H]2CN2C[C@@]3(CCCc4cc(Cl)ccc43)COc3ccc(cc32)C(=O)NS1(=O)=O [Example 601, 3-((1S,3′R,6′R,7′S,8′E,12′R)-6-chloro-12′-methyl-13′,13′-dioxido-15′-oxo-3,4-dihydro-2H-spiro[naphthalene-1,22′-[20]oxa[13]thia[1,14]diazatetracyclo[14.7.2.0^3,6.0^19,24]pentacosa [8,16,18,24]tetraen]-7′-yl)-1,1-dimethylurea-trifluoroacetate] | 1.33 nM |
| COC1C=CCC(OC)C(C)S(=O)(=O)NC(=O)c2ccc3c(c2)N(CC2CCC21)CC1(CCCc2cc(Cl)ccc21)CO3 (single isomer, unassigned) [Example 717] | 28.6 nM |
| O=C1NS(=O)(=O)/C=C/COC[C@@H](O)[C@@H]2CC[C@H]2CN2C[C@@]3(CCCc4cc(Cl)ccc43)COc3ccc1cc32 (single isomer, unassigned) [Example 917, (3R,6R,7S,11E,22S)-6′-chloro-7-hydroxy-3′,4′-dihydro-2′H,15H-spiro[9,20-dioxa-13-thia-1,14-diazatetracyclo[14.7.2.0^3,6.0^19,24]pentacosa-11,16,18,24-tetraene-22,1′-naphthalen]-15-one 13,13-dioxide or (3R,6R,7R,11E, 22S)-6′-chloro-7-hydroxy-3′,4′-dihydro-2′H,15H-spiro[9,20-dioxa-13-thia-1,14-diazatetracyclo[14.7.2.0^3,6.0^19,24]pentacosa-11,16,18,24-tetraene-22,1′-naphthalen]-15-one 13,13-dioxide] | 4.11 nM |
| CC(=O)N(C)[C@@H]1CCCCCS(=O)(=O)NC(=O)c2ccc3c(c2)N(C[C@@H]2CC[C@H]21)C[C@@]1(CCCc2cc(Cl)ccc21)CO3 (single isomer, unassigned) [Example 941] | 8.33 nM |
| CN(C(=O)C1CC1)C1CCCCCS(=O)(=O)NC(=O)c2ccc3c(c2)N(CC2CCC21)CC1(CCCc2cc(Cl)ccc21)CO3 (single isomer, unassigned) [Example 942] | 36.4 nM |
| C[C@@H]1[C@@H](O)C/C=C/C[C@@H]2CC[C@H]2CN2C[C@@]3(CCCc4cc(Cl)ccc43)COc3ccc(cc32)C(=O)NS1(=O)=O (single isomer, unassigned) [Example 504] | 2.55 nM |
| COc1cccc(NC(=O)C[C@@H]2CC/C=C/[C@H](O)[C@@H]3CC[C@H]3CN3C[C@@]4(CCCc5cc(Cl)ccc54)COc4ccc(cc43)C(=O)NS2(=O)=O)c1 (single isomer, unassigned) [Example 628] | 3.9 nM |
| CC1C(O)CC=CCC2CCC2CN2CC3(CCCc4cc(Cl)ccc43)COc3ccc(cc32)C(=O)NS1(=O)=O (single isomer, unassigned) [Example 507] | 18.3 nM |
| (1S,3′R,6′S,14′S,15′S)-6-chloro-3,4-dihydro-2H,9′H,17′H-spiro[naphthalene-1,24′-[22]oxa[15]thia[1,10,16]triazapentacyclo[16.7.2.1^10,14.0^3,6.0^21,26]octacosa[18,20,26]triene]-9′,17′-dione 15′-oxide or (1S,3′R,6′S,14′S,15′R)-6-chloro-3,4-dihydro-2H,9′H,17′H-spiro[naphthalene-1,24′-[22]oxa[15]thia[1,10,16]triazapentacyclo[16.7.2.1^10,14.0^3,6.0^21,26]octacosa[18,20,26]triene]-9′,17′-dione 15′-oxide [Example 949] | 8.43 nM |
| C[C@@H]1CC[C@@H]2C[C@H]2[C@H](O)[C@@H]2CC[C@H]2CN2C[C@@]3(CCCc4cc(Cl)ccc43)COc3ccc(cc32)C(=O)NS1(=O)=O (single isomer, unassigned) [Example 951] | 13.1 nM |
